Broadly, the IC50 is the midpoint of a concentration-inhibition curve.

Here are results for 19 compounds from patent US20230416248A1, “COMPOUNDS AND USES THEREOF” (Foghorn Therapeutics Inc., priority 2020, published 2023).

Assay [1] has as its target T1, BRG-1 (Homo sapiens, UniProt P51532).
T1 construct: made in house; host or cells: High Five insect cells
The experiment in a line: ATPase catalytic activity of BRG-1, ADP-Glo in vitro biochemical assay. Conditions: 30 nM BRG-1, 400 μM ATP, read-out: BRG1 IC50. The essentials:
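Once the ATPase reaction finished, leftover ATP was depleted over 40 minutes at room temperature. Generated ADP was next turned back into ATP during a 60-minute room-temperature step. Luciferase-derived light was then measured.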
(In general: ADP-Glo turns the ADP formed in a reaction into a luminescent signal.)

Assay [2] has as its target T2, BRM (Homo sapiens, UniProt P51531).
T2 construct: made in house; host or cells: High Five insect cells
In words: ATPase catalytic activity of BRM, ADP-Glo in vitro biochemical assay. Conditions: for IC50: 30 nM BRM, 400 μM ATP; for Ratio* (BRG1 IC50 (μM) divided by BRM IC50 (μM)): selectivity ratio BRG1 IC50 / BRM IC50. The essentials:
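ADP-Glo luminescence, after depletion of leftover ATP and conversion of ADP, reported the activity. The 1 h room-temperature reaction held 400 μM ATP, 20 nM salmon sperm DNA and 30 nM BRM in 20 mM Tris pH 8, 20 mM MgCl2, 50 mM NaCl, 0.1% Tween-20, 1 mM DTT.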

Where [3] appears, read: ATPase catalytic activity, ADP-Glo.

Where two headings read alike, the source gives them in different places.

T2 sequence (P51531 whole entry): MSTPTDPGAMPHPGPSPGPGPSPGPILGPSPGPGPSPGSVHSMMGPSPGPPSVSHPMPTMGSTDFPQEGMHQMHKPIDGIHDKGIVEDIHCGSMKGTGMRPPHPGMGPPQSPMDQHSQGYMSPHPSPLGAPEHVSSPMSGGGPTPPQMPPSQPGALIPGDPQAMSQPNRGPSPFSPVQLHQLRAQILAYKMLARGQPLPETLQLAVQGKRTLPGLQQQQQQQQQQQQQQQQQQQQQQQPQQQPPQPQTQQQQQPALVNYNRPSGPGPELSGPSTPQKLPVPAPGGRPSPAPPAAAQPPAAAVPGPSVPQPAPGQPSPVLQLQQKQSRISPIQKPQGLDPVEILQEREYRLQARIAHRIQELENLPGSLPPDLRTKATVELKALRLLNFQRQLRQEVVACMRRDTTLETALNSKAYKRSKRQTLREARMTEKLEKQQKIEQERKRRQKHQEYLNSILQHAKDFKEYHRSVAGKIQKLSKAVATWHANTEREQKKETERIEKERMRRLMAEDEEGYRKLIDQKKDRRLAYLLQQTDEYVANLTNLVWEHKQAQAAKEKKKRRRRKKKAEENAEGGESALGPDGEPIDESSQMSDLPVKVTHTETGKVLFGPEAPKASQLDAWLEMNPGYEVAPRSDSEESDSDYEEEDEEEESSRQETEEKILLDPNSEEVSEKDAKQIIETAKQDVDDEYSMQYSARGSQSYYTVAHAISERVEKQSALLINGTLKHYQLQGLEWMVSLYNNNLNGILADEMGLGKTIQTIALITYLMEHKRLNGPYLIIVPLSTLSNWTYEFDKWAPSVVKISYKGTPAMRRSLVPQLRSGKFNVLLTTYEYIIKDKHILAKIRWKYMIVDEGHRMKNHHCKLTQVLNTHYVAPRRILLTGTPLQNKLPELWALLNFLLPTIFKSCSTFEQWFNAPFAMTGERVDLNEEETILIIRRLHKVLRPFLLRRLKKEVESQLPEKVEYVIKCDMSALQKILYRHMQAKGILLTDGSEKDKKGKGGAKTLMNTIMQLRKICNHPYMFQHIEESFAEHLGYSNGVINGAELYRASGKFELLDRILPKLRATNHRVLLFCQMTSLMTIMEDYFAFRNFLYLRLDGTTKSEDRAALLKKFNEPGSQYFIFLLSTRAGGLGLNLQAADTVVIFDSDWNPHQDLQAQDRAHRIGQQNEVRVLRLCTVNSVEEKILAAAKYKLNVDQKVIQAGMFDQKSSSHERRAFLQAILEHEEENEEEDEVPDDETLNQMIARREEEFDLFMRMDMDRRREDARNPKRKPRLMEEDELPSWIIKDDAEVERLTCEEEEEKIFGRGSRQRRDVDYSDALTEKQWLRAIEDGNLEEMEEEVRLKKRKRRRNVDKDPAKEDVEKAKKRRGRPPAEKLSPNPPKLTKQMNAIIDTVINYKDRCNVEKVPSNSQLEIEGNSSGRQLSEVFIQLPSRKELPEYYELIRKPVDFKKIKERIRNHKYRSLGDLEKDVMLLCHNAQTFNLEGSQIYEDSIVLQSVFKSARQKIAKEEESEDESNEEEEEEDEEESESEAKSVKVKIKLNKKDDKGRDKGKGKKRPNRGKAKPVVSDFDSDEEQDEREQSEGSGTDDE
T1 sequence (P51532 whole entry): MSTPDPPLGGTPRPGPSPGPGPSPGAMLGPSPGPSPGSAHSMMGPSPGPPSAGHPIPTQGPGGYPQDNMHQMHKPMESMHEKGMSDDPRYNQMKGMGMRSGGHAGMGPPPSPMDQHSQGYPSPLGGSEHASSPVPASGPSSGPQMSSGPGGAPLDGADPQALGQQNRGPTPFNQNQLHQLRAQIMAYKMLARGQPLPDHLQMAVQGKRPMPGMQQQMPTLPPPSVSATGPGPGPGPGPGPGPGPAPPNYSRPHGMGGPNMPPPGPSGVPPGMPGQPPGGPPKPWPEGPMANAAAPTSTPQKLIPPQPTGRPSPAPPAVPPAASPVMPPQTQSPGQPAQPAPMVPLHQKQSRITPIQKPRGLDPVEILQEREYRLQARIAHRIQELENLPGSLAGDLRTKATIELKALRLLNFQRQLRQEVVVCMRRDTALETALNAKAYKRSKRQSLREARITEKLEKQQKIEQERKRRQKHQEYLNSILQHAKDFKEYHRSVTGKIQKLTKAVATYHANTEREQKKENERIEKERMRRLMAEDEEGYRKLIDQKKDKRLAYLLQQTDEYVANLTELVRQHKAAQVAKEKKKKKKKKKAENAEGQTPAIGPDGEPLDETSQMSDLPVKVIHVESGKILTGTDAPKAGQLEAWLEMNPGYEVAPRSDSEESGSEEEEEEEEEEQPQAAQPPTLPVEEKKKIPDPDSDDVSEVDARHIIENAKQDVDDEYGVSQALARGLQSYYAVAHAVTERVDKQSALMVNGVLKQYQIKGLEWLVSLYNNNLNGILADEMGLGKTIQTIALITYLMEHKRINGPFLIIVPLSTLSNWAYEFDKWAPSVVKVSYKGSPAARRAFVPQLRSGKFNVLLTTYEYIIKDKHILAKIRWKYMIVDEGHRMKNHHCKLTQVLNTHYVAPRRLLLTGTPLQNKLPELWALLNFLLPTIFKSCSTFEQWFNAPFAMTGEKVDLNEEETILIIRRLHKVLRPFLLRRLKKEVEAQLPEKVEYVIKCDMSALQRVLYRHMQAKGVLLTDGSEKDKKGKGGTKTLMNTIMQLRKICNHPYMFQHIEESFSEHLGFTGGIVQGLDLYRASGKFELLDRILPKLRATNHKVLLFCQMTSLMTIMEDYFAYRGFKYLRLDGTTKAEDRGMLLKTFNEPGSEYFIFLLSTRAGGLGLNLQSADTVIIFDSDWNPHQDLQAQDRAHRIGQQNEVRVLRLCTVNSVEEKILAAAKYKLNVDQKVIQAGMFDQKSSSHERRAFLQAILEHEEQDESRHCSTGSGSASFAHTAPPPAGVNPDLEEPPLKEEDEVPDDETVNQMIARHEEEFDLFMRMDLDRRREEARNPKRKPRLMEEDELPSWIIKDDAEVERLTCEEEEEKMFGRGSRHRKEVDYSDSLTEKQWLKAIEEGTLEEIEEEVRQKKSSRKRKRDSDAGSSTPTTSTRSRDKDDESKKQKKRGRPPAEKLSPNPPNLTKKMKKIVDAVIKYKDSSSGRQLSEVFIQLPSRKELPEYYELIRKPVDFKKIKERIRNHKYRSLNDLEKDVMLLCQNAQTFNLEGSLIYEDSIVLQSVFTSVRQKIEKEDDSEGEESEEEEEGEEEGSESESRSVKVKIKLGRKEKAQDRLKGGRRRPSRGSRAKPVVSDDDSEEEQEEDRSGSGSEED

For `CN1CCc2ccc(-c3ccc4cnc(CNC(=O)c5ccc6c(c5)S(=O)(=O)CCOC6)cc4n3)nc21` [Compound 190], the 50% inhibitory concentration (IC50) in assay [1] (ADP-Glo ATPase assay) came out at 394 nM; in assay [2] (ADP-Glo ATPase assay), 45.9 nM. Moreover, in assay [2], the “Ratio* (BRG1 IC50 (μM) divided by BRM IC50 (μM))” value was found to be 8.57.

On to `Cc1cc(C(=O)NCc2cc3nc(-c4cccc(N5C[C@@H](C)O[C@@H](C)C5)n4)ccc3cn2)cc2c1COC[C@H](C)S2(=O)=O` [Compound 457], for which the concentration for half-maximal inhibition (IC50) in assay [1] (setting [3]) was determined as 48.3 nM; in assay [2] (setting [3]), 5.9 nM. In assay [2] (ratio of BRG1 IC50 to BRM IC50), the “Ratio*” value turned out to be 8.14.

For the compound `O=C(NCc1cc2nc(N3CCOc4ccc([C@H](F)CF)nc43)ccc2cn1)c1ccc2c(c1)S(=O)(=O)CCOC2` [Compound 856], the figures for the IC50 in assay [1] (ADP-Glo ATPase assay) and in assay [2] (ADP-Glo ATPase assay) were 664 nM and 11.9 nM, respectively. The “Ratio*” value in assay [2] (ratio BRG1 IC50 / BRM IC50) came to 55.91.

In the case of `CN(C[C@H]1CCO1)c1cccc(-c2ccc3cnc(CNC(=O)c4ccc5c(c4)S(=O)(=O)CCOC5)cc3n2)n1` [Compound 383], the IC50 is 72.4 nM in assay [1] (setting [3]) and 6.6 nM in assay [2] (setting [3]). Further, in assay [2] (ratio of BRG1 IC50 to BRM IC50), the “Ratio*” value is 10.88.

Consider `CN(CC(F)F)c1cccc(-c2ccc3cnc(CNC(=O)c4ccc5c(c4)S(=O)(=O)CCOC5)cc3n2)n1` [Compound 115], for which the values for the IC50 in assay [1] (ADP-Glo ATPase assay) and in assay [2] (ADP-Glo ATPase assay) were 236 nM and 23.5 nM, respectively. In addition, in assay [2], the “Ratio* (BRG1 IC50 (μM) divided by BRM IC50 (μM))” value came out at 10.05.

For `C[C@H]1COCc2ccc(C(=O)NCc3cc4nc(-c5cccc(OC(F)(F)F)n5)ccc4cn3)cc2S1(=O)=O` [Compound 388], the half-maximal inhibitory concentration (IC50) is 587 nM in assay [1] (setting [3]) and 18.4 nM in assay [2] (setting [3]). In addition, the “Ratio*” value in assay [2] (ratio of BRG1 IC50 to BRM IC50) is recorded as 31.86.

Take `Cc1cnc2c(c1)OCCN2c1ccc2cnc(CNC(=O)c3cc(C)c4c(c3)S(=O)(=O)CCOC4)cc2n1` [Compound 549]: the concentration for half-maximal inhibition (IC50) came to 131 nM in assay [1] (setting [3]) and 7.3 nM in assay [2] (setting [3]). The “Ratio*” value in assay [2] (ratio of BRG1 IC50 to BRM IC50) came out at 17.80.

With `CC1CCc2ccc(-c3ccc4cnc(CNC(=O)c5ccc6c(c5)S(=O)(=O)CCOC6)cc4n3)nc2N1C1CC1` (centres unmarked) [Compound 425], the IC50 amounted to 966 nM in assay [1] (setting [3]) and 101 nM in assay [2] (setting [3]). The “Ratio*” value in assay [2] (ratio of BRG1 IC50 to BRM IC50) was 9.58.

As for `CCOc1cccc(-c2ccc3cnc(CNC(=O)c4ccc5c(c4)S(=O)(=O)[C@@H](C)COC5)cc3n2)n1` [Compound 330], the figures for the IC50 in assay [1] (setting [3]) and in assay [2] (setting [3]) were 473 nM and 11 nM, respectively. In addition, the “Ratio*” value in assay [2] (ratio of BRG1 IC50 to BRM IC50) came out at 43.09.

For the compound `CC1CCc2ccc(-c3ccc4cnc(CNC(=O)c5ccc6c(c5)S(=O)(=O)CCOC6)cc4n3)nc2O1` (centres unmarked) [Compound 529], the IC50 in assay [1] (setting [3]) is 671 nM; in assay [2] (setting [3]) it was 173 nM. In assay [2] (ratio of BRG1 IC50 to BRM IC50), the “Ratio*” value stood at 3.88.

With `COCc1cc2c(c(F)c1Cl)N(c1ccc3cnc(CNC(=O)c4ccc5c(c4)S(=O)(=O)CCOC5)cc3n1)CCO2` [Compound 794], the IC50 was found to be 30.4 nM in assay [1] (ADP-Glo ATPase assay) and 6.6 nM in assay [2] (ADP-Glo ATPase assay). Also, the “Ratio*” value in assay [2] (ratio BRG1 IC50 / BRM IC50) is given as 4.60.

Consider `O=C(NCc1cc2nc(-c3cccc(N4CCC4)c3)ccc2cn1)c1ccc2c(c1)S(=O)(=O)CCOC2` [Compound 255], for which the concentration for half-maximal inhibition (IC50) was 487 nM in assay [1] (ADP-Glo ATPase assay) and 36.4 nM in assay [2] (ADP-Glo ATPase assay). In assay [2], the “Ratio* (BRG1 IC50 (μM) divided by BRM IC50 (μM))” value is on record as 13.37.

Turning to `O=C(NCc1cc2nc(N3CCCc4ccc(OCC(F)F)nc43)ccc2cn1)c1ccc2c(c1)S(=O)(=O)CCOC2` [Compound 601], the results for the IC50 in assay [1] (setting [3]) and in assay [2] (setting [3]) were 1910 nM and 215 nM, respectively. In addition, the “Ratio*” value in assay [2] (ratio of BRG1 IC50 to BRM IC50) stood at 8.88.

For `O=C(NCc1cc2nc(-c3cccc(N4CC[C@@H](F)C4)n3)ccc2cn1)c1ccc2c(c1)S(=O)(=O)CCOC2` [Compound 222], the half-maximal inhibitory concentration (IC50) was 136 nM in assay [1] (ADP-Glo ATPase assay) and 12.9 nM in assay [2] (ADP-Glo ATPase assay). Moreover, in assay [2], the “Ratio* (BRG1 IC50 (μM) divided by BRM IC50 (μM))” value is recorded as 10.58.

Take `Cc1cnc2c(c1)CCCN2c1ccc2cnc(CNC(=O)c3ccc4c(c3)S(=O)(=O)CCCO4)cc2n1` [Compound 514]: the IC50 was 465 nM in assay [1] (setting [3]) and 58.9 nM in assay [2] (setting [3]). Moreover, in assay [2] (ratio of BRG1 IC50 to BRM IC50), the “Ratio*” value worked out at 7.89.

For the compound `COc1cccc2c1CCCN2c1ccc2cnc(CNC(=O)c3ccc4c(c3)S(=O)(=O)CCOC4)cc2n1` [Compound 492], the 50% inhibitory concentration (IC50) in assay [1] (setting [3]) was found to be 19.1 nM; in assay [2] (setting [3]), 4.4 nM. Moreover, the “Ratio*” value in assay [2] (ratio of BRG1 IC50 to BRM IC50) turned out to be 4.38.

Take `O=C(NCc1cc2nc(-c3cncc(C4CC4)n3)ccc2cn1)c1ccc2c(c1)S(=O)(=O)COCC2` [Compound 236]: the IC50 in assay [1] (ADP-Glo ATPase assay) was determined as 440 nM; in assay [2] (ADP-Glo ATPase assay), 34 nM. For the same compound, the “Ratio* (BRG1 IC50 (μM) divided by BRM IC50 (μM))” value in assay [2] is given as 12.93.

Take `C[C@@H]1CN(c2cccc(-c3ccc4nnc(CNC(=O)c5ccc(C(F)F)c(S(C)(=O)=O)c5)cc4n3)n2)C[C@H](C)O1` [Compound 40]: the half-inhibitory concentration (IC50) in assay [1] (ADP-Glo ATPase assay) is 88.4 nM; in assay [2] (ADP-Glo ATPase assay), 8.9 nM.

For the compound `CN(c1cnc2c(c1)OCCN2c1ccc2cnc(CNC(=O)c3ccc4c(c3)S(=O)(=O)CCOC4)cc2n1)C1CCC1` [Compound 819], the results for the IC50 in assay [1] (ADP-Glo ATPase assay) and in assay [2] (ADP-Glo ATPase assay) were 46.7 nM and 6.4 nM, respectively. Further, the “Ratio*” value in assay [2] (ratio BRG1 IC50 / BRM IC50) came to 7.26.
